# Results reported in patent US8158088B2, “Extractant compositions for co-extracting cesium and strontium, a method of separating cesium and strontium from an aqueous feed, and calixarene compounds” (Battelle Energy Alliance, LLC, priority 2008, dated 2012).
# Legend:
# Format in all cases: physicochemical
# [1] = Third phase formation on contact with nitric acid; settings: 5 M HNO3; 0.025 M BOBCalixC6, 0.075 DtBuCH18C6, 0.003 M TOA, 0.75 M EXXAL 12 in ISOPAR L
# [2] = Cesium distribution ratio (DCs), equilibrium batch contact of mixed extractant solvent with nitric acid feed; settings: for Cesium distribution ratio, contact E1: first forward extraction, 1.5 M HNO3 feed simulant, 0.075 M DtBuCH18C6, 0.75 M Cs-7SB, 0.003 M TOA in ISOPAR L; for Cesium distribution ratio, contact E1 / Cesium distribution ratio, contact E2 / Cesium distribution ratio, contact E3: 25 °C; for Cesium distribution ratio, contact St1: first strip with 0.01 M HNO3, 35 °C; for Cesium distribution ratio, contact St1 / Cesium distribution ratio, contact E2 / Cesium distribution ratio, contact St2 / Cesium distribution ratio, contact E3: 0.007 M calixarene solvent; for Cesium distribution ratio, contact E2: second forward extraction; for Cesium distribution ratio, contact St2: second strip with 0.01 M HNO3, 35 °C; for Cesium distribution ratio, contact E3: third forward extraction
# From the text: The distribution of cesium and strontium between the first organic phase (the mixed extractant solvent including the dialkyloxycalix[4]arenebenzocrown-6 compound) and the first aqueous phase (aqueous feed) may be determined by conventional techniques. The distribution ratio for strontium (“DSr”) may be calculated as the ratio of organic phase activity to the aqueous phase activity at equilibrium. High values for the DSr indicate that the strontium is present predominantly in the organic phase while low values for the DSr indicate that the strontium is present predominantly in the aqueous phase. Similarly, the distribution ratio for cesium (“DCs”) may be calculated as the ratio of organic phase activity to the aqueous phase activity at equilibrium. High values for the DCs indicate that the cesium is present predominantly in the organic phase while low values for the DCs indicate that the cesium is present predominantly in the aqueous phase.
# Distribution ratios (DM=[M]org/[M]aq) were measured by equilibrium batch contacts between the organic and aqueous phases at an organic-to-aqueous phase ratio (O/A) of unity (O/A=1). All distribution ratio measurements were conducted in a temperature controlled water bath at 25±1° C. The aqueous phase was of the appropriate HNO3 concentration, to which trace quantities (typically, less than 10^−7 M each) of the major radionuclides of interest (^137Cs, ^85Sr, ^154Eu, or ^241Am) were added. The organic and aqueous phases were contacted by vortex mixing for 1 minute. All batch contact experiments were performed at ambient temperature (from approximately 20° C. to approximately 25° C.) unless otherwise noted. Following extraction, the samples were centrifuged for 1 minute and the organic and aqueous phases separated by pipet or centrifugation. The distribution ratios (DSr, or DCs) were calculated as the ratio of the appropriate specific activities in the organic and aqueous phases as determined by γ-ray counting (gamma spectroscopy). The counting time was selected to provide less than approximately 1% statistical uncertainty.
# (MC-8, MC-8B, MC-10, MC-10B, MC-12, or MC-12B), 0.075 M DtBuCH18C6, 0.75 M Cs-7SB modifier, and 0.003 M TOA in ISOPAR® L were evaluated for their respective abilities to simultaneously extract cesium and strontium from the aqueous feed simulant composition described in Table 2. The cesium and strontium distribution ratios of the mixed extraction solvents were compared to those of the FPEX I process solvent. The cesium extraction performance and strontium extraction performance of each of the mixed extractant solvents was determined using the batch contact flowsheet presented in FIG. 1, where “E1,” “E2,” and “E3” refer to three forward extraction acts: a first extraction act, a second extraction act, and a third extraction act, respectively, and “St1” and “St2” refer to two backward extraction acts: a first strip act and a second strip act, respectively. […] The aqueous feed 2 and the mixed extractant solvent 4 were combined in a vessel 6 to conduct the extraction. Two phases were formed during the extraction: the first organic phase and the first aqueous phase, with the cesium and strontium substantially distributed in the first organic phase.
# The cesium and strontium distribution ratios for the mixed extractant solvents 4 were calculated for the first organic phase and are reported in Tables 3 and 4, respectively, as E1, along with the cesium and strontium distribution ratios for the FPEX I process solvent. The cesium and strontium were stripped from the first (and subsequent) organic phase to recover these radionuclides. For the strips or backward extractions, the first (and subsequent) organic phase was contacted with dilute acidic solution 8, which was 0.01 M HNO3. […]
# [3] = Strontium distribution ratio (DSr), equilibrium batch contact of mixed extractant solvent with nitric acid feed; settings: for Strontium distribution ratio, contact E1: first forward extraction, 1.5 M HNO3 feed simulant, 0.007 M calixarene, 0.075 M DtBuCH18C6, 0.75 M Cs-7SB, 0.003 M TOA in ISOPAR L; for Strontium distribution ratio, contact E1 / Strontium distribution ratio, contact E2 / Strontium distribution ratio, contact E3: 25 °C; for Strontium distribution ratio, contact St1: first strip with 0.01 M HNO3, 35 °C; for Strontium distribution ratio, contact St1 / Strontium distribution ratio, contact E2 / Strontium distribution ratio, contact St2 / Strontium distribution ratio, contact E3: 0.007 M calixarene solvent; for Strontium distribution ratio, contact E2: second forward extraction; for Strontium distribution ratio, contact E2 / Strontium distribution ratio, contact E3: 1.5 M HNO3 feed; for Strontium distribution ratio, contact St2: second strip with 0.01 M HNO3, 35 °C; for Strontium distribution ratio, contact E3: third forward extraction
# [4] = Solvent stability: cesium distribution ratios as a function of contact time with 1.5 M HNO3
# Procedure: (§1) The stability of the mixed extractant solvents prepared using dialkyloxycalix[4]arenebenzocrown-6 compounds (MC-8, MC-8B, MC-10, MC-10B, MC-12, or MC-12B) relative to BOBCalixC6 in the FPEX I process solvent was determined. Samples were prepared using each of the dialkyloxycalix[4]arenebenzocrown-6 compounds and contacted with 1.5 M HNO3. The samples included 0.007 M of the respective dialkyloxycalix[4]arenebenzo-crown-6 compound (MC-8, MC-8B, MC-10, MC-10B, MC-12, or MC-12B), 0.075 M DtBuCH18C6, 0.75 M Cs-7SB modifier, and 0.003 M TOA in ISOPAR® L. The stability of the dialkyloxycalix[4]arene-benzocrown-6 based solvents was evaluated by measuring the cesium and strontium distribution ratios as a function of contact time. These cesium and strontium distribution ratios for the mixed extractant solvents are presented in Table 9 and Table 10, respectively, along with the cesium and strontium distribution ratios for the FPEX I process solvent. The symbol “-” is used in Tables 9 and 10 to indicate no data was collected.
# (§2) This degradation is likely due to chemical attack or nitration of the BOBCalixC6 in the FPEX I process solvent. […] However, it is difficult to compare the relative extents of degradation. In order to compare the different extractants, the distribution ratio data presented in Tables 9 and 10 were normalized to the values obtained at t=0 days contact. The normalized cesium and strontium distribution ratios for the FPEX I process solvent and the mixed extractant solvents as a function of contact time are presented in FIGS. 2 and 3, respectively.
# [5] = Solvent stability: strontium distribution ratios as a function of contact time with 1.5 M HNO3
# Procedure: as §1, §2
# [6] = contact time 0 days with 1.5 M HNO3, 0.007 M calixarene, 0.075 M DtBuCH18C6, 0.75 M Cs-7SB, 0.003 M TOA in ISOPAR L
# [7] = contact time 34 days with 1.5 M HNO3
# [8] = contact time 70 days with 1.5 M HNO3
# [9] = contact time 278 days with 1.5 M HNO3
# [10] = contact time 36 days with 1.5 M HNO3
# [11] = contact time 244 days with 1.5 M HNO3
Molecule,"Cesium distribution ratio, contact E1 ([2]; 0.007 M calixarene)","Cesium distribution ratio, contact St1 [2]","Cesium distribution ratio, contact E2 ([2]; 1.5 M HNO3 feed)","Cesium distribution ratio, contact St2 [2]","Cesium distribution ratio, contact E3 ([2]; 1.5 M HNO3 feed)","Strontium distribution ratio, contact E1 [3]","Strontium distribution ratio, contact St1 [3]","Strontium distribution ratio, contact E2 [3]","Strontium distribution ratio, contact St2 [3]","Strontium distribution ratio, contact E3 [3]","Cesium distribution ratio as a function of contact time [4, 6]","Cesium distribution ratio as a function of contact time [4, 7]","Cesium distribution ratio as a function of contact time [4, 8]","Cesium distribution ratio as a function of contact time [4, 9]","Strontium distribution ratio as a function of contact time [5, 6]","Strontium distribution ratio as a function of contact time [5, 7]","Strontium distribution ratio as a function of contact time [5, 8]","Strontium distribution ratio as a function of contact time [5, 9]","Cesium distribution ratio as a function of contact time [4, 10]","Cesium distribution ratio as a function of contact time [4, 11]",also measured
"CC(C)(C)CC(C)(C)c1ccc2c(c1)OCCOCCOc1c3cccc1Cc1cccc4c1OCCOCCOc1cc(C(C)(C)CC(C)(C)C)ccc1OCCOCCOc1c(cccc1C3)Cc1cccc(c1OCCOCCO2)C4 [BOBCalixC6, calix[4]arene-bis(tert-octylbenzo)-crown-6, reference compound]",–,–,–,–,–,–,–,–,–,–,–,–,–,–,–,–,–,–,–,–,third phase formation [1]: Third phase formation was observed
"CCCCC(CC)COc1c2cccc1Cc1cccc3c1OCCOCCOc1ccccc1OCCOCCOc1c(cccc1Cc1cccc(c1OC[C@H](CC)CCCC)C3)C2 (stereo partly shown) [MC-8B, 1,3-alternate-25,27-di(2-ethylhexyl-1-oxy)calix[4]arenebenzocrown-6]",1.4,0.2,1.1,0.1,1.0,8.9,0.06,8.3,0.01,8.1,1.36,0.8,1.5,2.8,8.9,7.2,9.3,7.6,–,–,"cesium distribution ratios, comparison in words ([2]; 0.007 M calixarene, 1.5 M HNO3 feed): lowest distribution ratios; stability toward hydrolytic degradation (normalized cesium distribution ratios, FIG. 2) ([4]; prolonged contact with 1.5 M HNO3): most resistant toward hydrolytic degradation"
"CCCCCCCCCCOc1c2cccc1Cc1cccc3c1OCCOCCOc1ccccc1OCCOCCOc1c(cccc1Cc1cccc(c1OCCCCCCCCCC)C3)C2 [MC-10, 1,3-alternate-25,27-di(decyloxy)calix[4]arenebenzocrown-6]",3.7,0.5,2.0,0.2,1.6,9.5,0.06,8.4,0.01,8.3,3.7,3.0,3.5,1.1,9.5,7.7,9.0,7.7,–,–,–
"CCCCCCCCCCCCOc1c2cccc1Cc1cccc3c1OCCOCCOc1ccccc1OCCOCCOc1c(cccc1Cc1cccc(c1OCCCCCCCCCCCC)C3)C2 [MC-12, 1,3-alternate-25,27-di(dodecyloxy)calix[4]arenebenzocrown-6]",2.9,0.4,1.7,0.2,1.3,7.7,0.04,7.5,0.01,7.0,3.0,–,–,2.8,7.5,–,–,–,2.5,2.2,"Strontium distribution ratio as a function of contact time [5, 10]: 7.1; Strontium distribution ratio as a function of contact time [5, 11]: 6.1"
"4′,4′,(5′)-di-(t-butyldicyclohexano)-18-crown-6 [DtBuCH18C6, reference compound]",–,–,–,–,–,–,–,–,–,–,–,–,–,–,–,–,–,–,–,–,"stability (normalized strontium distribution ratios, FIG. 3) ([5]; prolonged contact with HNO3): subject to degradation following prolonged contact with HNO3"
"CCCCC(CCCC)CCCOc1c2cccc1Cc1cccc3c1OCCOCCOc1ccccc1OCCOCCOc1c(cccc1Cc1cccc(c1OCCCC(CCCC)CCCC)C3)C2 [MC-12B, 1,3-alternate-25,27-di(4-butyloctyl-1-oxy)calix[4]arenebenzocrown-6]",2.5,0.4,1.3,0.2,1.1,7.7,0.03,6.7,0.02,6.3,3.3,–,–,–,6.3,–,–,–,2.1,1.8,"Strontium distribution ratio as a function of contact time [5, 10]: 6.9; Strontium distribution ratio as a function of contact time [5, 11]: 5.7"
